We go through two molecules from patent publication US20170190705A1, “Compositions and Methods for Inhibiting BMP” (THE BRIGHAM AND WOMAN'S HOSPITAL, INC., priority 2014, published 2017).

Common to all, as to assay type: biochemical
For one test, the target named is T1, TSSK2 (Homo sapiens, UniProt Q96PF2).
T1 sequence (Q96PF2 1-358): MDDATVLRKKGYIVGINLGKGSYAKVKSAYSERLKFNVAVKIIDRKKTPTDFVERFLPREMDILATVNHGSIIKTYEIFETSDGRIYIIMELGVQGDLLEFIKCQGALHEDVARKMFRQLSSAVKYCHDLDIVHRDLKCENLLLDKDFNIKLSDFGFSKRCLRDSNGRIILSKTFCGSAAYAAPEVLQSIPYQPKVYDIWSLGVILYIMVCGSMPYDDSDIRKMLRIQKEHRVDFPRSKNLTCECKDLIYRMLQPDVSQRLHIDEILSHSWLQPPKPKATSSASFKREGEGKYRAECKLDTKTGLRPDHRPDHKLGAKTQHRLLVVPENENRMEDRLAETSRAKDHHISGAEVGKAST
Description: Kinome profiling TSSK2. The note with it: read-out: Inhibitory activity TSSK2; for inhibition at 0.1 µM: 100 nM. How it is done:
(§1) . The kinome-wide selectivity was determined following the methods previously reported by Mohedas et al., ACS Chem Biol 2013, 8, 1291-1302 and Sanvitale et al., PLoS One 2013, 8, e62721.

For the next test, the target named is T2, SPHK2 (Homo sapiens, UniProt Q9NRA0).
T2 sequence (Q9NRA0 1-654): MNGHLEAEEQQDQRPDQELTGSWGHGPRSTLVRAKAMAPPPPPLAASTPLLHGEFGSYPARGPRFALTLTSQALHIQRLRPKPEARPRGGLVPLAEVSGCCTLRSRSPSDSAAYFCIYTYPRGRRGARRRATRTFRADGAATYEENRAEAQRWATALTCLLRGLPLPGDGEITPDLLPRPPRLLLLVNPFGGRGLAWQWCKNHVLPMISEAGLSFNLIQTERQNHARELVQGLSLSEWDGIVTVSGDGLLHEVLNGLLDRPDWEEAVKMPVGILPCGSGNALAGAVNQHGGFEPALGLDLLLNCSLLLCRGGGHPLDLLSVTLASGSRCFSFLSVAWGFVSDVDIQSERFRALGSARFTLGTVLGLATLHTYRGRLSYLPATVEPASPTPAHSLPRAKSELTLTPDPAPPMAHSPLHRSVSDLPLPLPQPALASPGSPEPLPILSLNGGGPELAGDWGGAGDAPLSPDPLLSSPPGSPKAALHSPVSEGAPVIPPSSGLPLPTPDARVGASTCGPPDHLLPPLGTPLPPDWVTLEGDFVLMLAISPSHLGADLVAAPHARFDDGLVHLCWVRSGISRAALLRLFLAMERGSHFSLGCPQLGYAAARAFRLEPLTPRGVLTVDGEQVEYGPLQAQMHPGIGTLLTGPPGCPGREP
Description: Kinome profiling SPHK2. The conditions noted are these: read-out: Inhibitory activity SPHK2; for inhibition at 0.1 µM: 100 nM. How it is done: as §1

The next test deals with T3, MUSK (Homo sapiens, UniProt O15146).
T3 sequence (O15146 24-869): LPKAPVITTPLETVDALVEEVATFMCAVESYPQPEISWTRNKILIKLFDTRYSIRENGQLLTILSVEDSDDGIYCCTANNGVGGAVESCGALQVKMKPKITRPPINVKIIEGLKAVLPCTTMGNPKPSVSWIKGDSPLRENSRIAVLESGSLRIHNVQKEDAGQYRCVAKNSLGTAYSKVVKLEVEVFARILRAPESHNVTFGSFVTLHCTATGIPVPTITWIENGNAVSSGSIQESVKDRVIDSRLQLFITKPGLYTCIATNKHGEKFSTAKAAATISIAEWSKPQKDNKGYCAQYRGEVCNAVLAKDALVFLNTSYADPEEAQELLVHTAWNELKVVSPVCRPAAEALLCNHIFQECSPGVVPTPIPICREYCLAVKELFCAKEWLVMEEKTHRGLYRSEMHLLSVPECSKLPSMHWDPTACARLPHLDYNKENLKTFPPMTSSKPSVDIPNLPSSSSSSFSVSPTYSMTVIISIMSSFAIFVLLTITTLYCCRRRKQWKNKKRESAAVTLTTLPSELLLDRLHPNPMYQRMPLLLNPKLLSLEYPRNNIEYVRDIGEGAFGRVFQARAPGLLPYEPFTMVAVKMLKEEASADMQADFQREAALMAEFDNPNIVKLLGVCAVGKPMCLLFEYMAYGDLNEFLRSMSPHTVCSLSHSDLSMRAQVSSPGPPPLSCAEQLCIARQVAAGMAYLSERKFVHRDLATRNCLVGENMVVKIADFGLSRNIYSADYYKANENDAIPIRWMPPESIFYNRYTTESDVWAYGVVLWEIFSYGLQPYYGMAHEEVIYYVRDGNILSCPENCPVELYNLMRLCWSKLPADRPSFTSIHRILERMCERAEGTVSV
Description: Kinome profiling MUSK. The conditions noted are these: read-out: Inhibitory activity MUSK; for inhibition at 0.1 µM: 100 nM. How it is done:
as §1

The next test concerns the target T4, TEC (Homo sapiens, UniProt P42680).
T4 sequence (P42680 1-631): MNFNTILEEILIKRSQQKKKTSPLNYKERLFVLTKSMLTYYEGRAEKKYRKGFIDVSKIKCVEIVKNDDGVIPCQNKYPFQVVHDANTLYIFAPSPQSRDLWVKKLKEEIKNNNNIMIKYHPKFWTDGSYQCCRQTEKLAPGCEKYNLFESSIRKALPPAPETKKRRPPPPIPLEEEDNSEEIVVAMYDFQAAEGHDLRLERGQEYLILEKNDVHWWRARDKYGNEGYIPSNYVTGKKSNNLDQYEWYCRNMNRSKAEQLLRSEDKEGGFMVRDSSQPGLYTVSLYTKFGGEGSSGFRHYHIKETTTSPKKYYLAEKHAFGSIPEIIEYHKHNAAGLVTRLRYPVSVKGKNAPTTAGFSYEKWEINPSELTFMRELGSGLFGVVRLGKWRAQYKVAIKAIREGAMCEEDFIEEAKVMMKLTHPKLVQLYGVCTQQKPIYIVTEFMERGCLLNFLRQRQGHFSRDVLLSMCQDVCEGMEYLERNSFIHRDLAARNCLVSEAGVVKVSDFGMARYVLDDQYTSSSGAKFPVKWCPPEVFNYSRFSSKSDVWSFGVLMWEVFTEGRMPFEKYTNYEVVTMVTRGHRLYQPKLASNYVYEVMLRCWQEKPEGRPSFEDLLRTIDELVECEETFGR
Description: Kinome profiling TEC. The conditions noted are these: read-out: Inhibitory activity TEC; for inhibition at 0.1 µM: 100 nM. The protocol: as §1

In the next test the target is FGFR2 (Homo sapiens, UniProt P21802). Description: Kinome profiling FGFR2. The note with it: read-out: Inhibitory activity FGFR2; for inhibition at 0.1 µM: 100 nM. How it is done: as §1

Each structure is given as a SMILES string.

FGFR2, sequence (P21802 22-821): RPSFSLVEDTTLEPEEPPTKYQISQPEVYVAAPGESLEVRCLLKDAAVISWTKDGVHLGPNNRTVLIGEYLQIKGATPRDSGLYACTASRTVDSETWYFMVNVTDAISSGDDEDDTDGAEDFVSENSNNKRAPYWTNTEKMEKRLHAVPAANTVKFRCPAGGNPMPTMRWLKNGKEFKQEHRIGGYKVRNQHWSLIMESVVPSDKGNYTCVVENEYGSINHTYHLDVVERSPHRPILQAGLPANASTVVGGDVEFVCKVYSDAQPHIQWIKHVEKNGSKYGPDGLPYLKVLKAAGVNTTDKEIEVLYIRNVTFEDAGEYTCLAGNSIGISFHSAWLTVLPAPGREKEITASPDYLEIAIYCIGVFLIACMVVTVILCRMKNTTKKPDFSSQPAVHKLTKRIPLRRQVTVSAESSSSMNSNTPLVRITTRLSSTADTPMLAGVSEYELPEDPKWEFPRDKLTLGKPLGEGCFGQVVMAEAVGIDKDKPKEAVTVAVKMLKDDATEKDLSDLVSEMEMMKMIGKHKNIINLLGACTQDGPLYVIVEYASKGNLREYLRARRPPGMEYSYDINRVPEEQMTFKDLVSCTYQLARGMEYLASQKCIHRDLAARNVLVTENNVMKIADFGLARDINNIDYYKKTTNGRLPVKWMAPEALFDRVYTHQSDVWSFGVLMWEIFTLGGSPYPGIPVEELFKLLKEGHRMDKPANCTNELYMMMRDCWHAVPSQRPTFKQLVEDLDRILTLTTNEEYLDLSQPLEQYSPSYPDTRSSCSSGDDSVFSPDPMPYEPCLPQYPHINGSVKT

In the case of `COc1cc(-c2cc(-c3ccc(N4CCNCC4)cc3)cnc2N)cc(OC)c1OC` [Compound 15, 5-(4-(piperazin-1-yl)phenyl)-3-(3,4,5-trimethoxyphenyl)pyridin-2-amine], the inhibition at 0.1 µM at TSSK2 stood at 1%; on SPHK2, 6%; at MUSK it was 1%; on TEC, 5%; at FGFR2 it was 2%. The inhibition at 1 µM at TSSK2 is 1%; on SPHK2 it was -6%; at MUSK, 5%; at TEC, 24%; at FGFR2, 5%.

On to `COc1cc(-c2cc(-c3ccc(N4CCNCC4)cc3)cnc2C)cc(OC)c1OC` [Compound 10, 1-(4-(6-methyl-5-(3,4,5-trimethoxyphenyl)pyridin-3-yl)phenyl)piperazine], for which the inhibition at 0.1 µM on TSSK2 is 4%; at SPHK2, 13%; at MUSK it was 2%; at TEC, 0%; on FGFR2, -1%. Moreover, the inhibition at 1 µM on TSSK2 was 4%; on SPHK2, 5%; at MUSK it was 2%; on TEC, 0%; on FGFR2, 0%.
